Here are results for seven compounds from patent publication US20240285543A1, “NANOPARTICLE-MEDIATED ENHANCEMENT OF IMMUNOTHERAPY TO PROMOTE FERROPTOSIS-INDUCED CYTOTOXICITY AND ANTITUMOR IMMUNE RESPONSES” (Memorial Sloan-Kettering Cancer Center, priority 2021, published 2024).

In general, IC50 refers to the midpoint of a concentration-inhibition curve. Low values mean greater potency in that assay, high ones weaker potency in that assay.

The subject of data set [1] is MC1-R. Description: IC50 (M). From the text: Table printed on a drawing sheet, FIG. 13F
(§1) Head of the field: IC50 (M)
The patent's description of the figure: FIGS. 13A-13F show characterization of a lead alpha-MSH peptide-linker conjugate. Structural schematics of representative alpha-MSH peptides. […] FIG. 13B, FIG. 13C each show second generation peptides with reduced hydrophobicity containing PEG2 and one Ahx spacer: (FIG. 13B) PEG2-Ahx-d-Lys-alpha-MSH (yellow closed circle in FIG. 13E); and (FIG. 13C) PEG2-d-Lys-Ahx-alpha-MSH (green triangle in FIG. 13E). […] FIG. 13E and FIG. 13F show IC50 determination of MC1-R targeting Re-cyclized and lactam-cyclized peptides.
First copying reader's note: IC50 values belong to the competitive binding curves of FIG. 13E on the same sheet.
Where the first naming reader finds the target: head: MC1-R-Targeting Peptide Linker Sequences

Data set [2] concerns the target T1, PSMA (Homo sapiens, UniProt Q04609).
From the text: Table printed on a drawing sheet, FIG. 25
as §1
The patent's description of the figure: FIG. 25 show PSMA-targeting peptide-linkers, according to embodiments of the present disclosure.
Where the first naming reader finds the target: head: PSMA-Targeting Peptide-Linker Sequences
Target sequence in this assay (Q04609 whole entry, looked up): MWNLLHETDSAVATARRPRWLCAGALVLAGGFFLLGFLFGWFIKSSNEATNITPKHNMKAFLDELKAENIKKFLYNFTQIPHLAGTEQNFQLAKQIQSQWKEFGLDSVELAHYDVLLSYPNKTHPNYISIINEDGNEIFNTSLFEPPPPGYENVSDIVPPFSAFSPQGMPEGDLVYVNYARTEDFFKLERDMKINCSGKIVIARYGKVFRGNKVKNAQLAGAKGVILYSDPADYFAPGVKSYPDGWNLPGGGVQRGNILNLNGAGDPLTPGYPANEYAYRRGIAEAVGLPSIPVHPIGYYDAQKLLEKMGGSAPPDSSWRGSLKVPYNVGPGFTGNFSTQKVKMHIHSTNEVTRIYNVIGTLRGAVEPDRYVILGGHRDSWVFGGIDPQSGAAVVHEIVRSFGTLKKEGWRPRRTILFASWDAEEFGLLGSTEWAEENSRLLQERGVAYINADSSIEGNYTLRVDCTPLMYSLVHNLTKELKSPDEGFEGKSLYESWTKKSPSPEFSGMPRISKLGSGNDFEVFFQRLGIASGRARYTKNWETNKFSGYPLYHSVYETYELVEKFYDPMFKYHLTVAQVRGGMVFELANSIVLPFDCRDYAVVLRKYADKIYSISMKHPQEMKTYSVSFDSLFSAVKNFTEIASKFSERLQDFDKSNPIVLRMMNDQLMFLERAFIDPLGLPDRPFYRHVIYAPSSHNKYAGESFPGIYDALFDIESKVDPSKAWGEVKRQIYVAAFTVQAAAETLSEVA

In data set [3] the target is T1, PSMA. On the set-up: compiled for 40 patients treated with ^225Ac-PSMA-617; host or cells: patients (mCRPC). The settings on record: cited from earlier work; for clinical response: mCRPC patients.
Target sequence in this assay (Q04609 whole entry): as the sequence (Q04609 whole entry, looked up) above
In data set [4] the test system is B16-F10 tumors. Description: B16-F10 melanoma tumor growth inhibition and TME analysis. In kind it is in vivo, mice. The source says:
FIGS. 15A-15C show C′ dots inhibit melanoma tumor growth via ferroptotic induction and pro-inflammatory responses. […] Data represents analyses of n=4 mice per group, mean±s.e.m. *p<0.05 (non-parametric 2-way ANOVA).
Data represent mean±s.e.m. **** saline-PD1: P=0.0001; **** saline-alpha-MSH: P=0.0001; **** saline-(anti-PD1+alpha-MSH): P<0.0001; **PD1-(anti-PD1+alpha-MSH): P=0.0017; **alpha-MSH-(anti-PD1+alpha-MSH): P=0.0017.
The present example describes a statistically significant and marked drop in tumor volume (red curve) to nearly 65% of control values (blue curve) following a multiple, high-dose (60 μM) regimen of i.v.-injected αMSH-PEG-C′ dots in B16-F10 mice when tumors reached […]. […] To evaluate the extent of immune cell infiltration, IHC was performed to assess for Iba1, CD3, CD4, and CD8 expression, with results graphically depicted in FIG. 15C. […]
Particles have been either injected as multiple doses (n=3) alone or concomitantly with either the first three doses (“early”, on days 7, 10, and 13) or the final three doses (“late”, on days 16, 19, and 22) of anti-PD-1 (250 μg/mouse), anti-CTLA4 (100 μg/mouse), or anti-PD-1+anti-CTLA4 antibody regimens (see FIG. 12). […] It can then be determined whether the order of administration of these agents is important in terms of modulating overall treatment responses.

For “Ac-Cys-PEG2-dLys-Ahx-Nle-Re(CCMSH) [2nd gen αMSH (#2)]”, the IC50 in data set [1] turned out to be 0.071 µM. Compound `O=C(O)CC[C@H](NC(=O)N[C@@H](CCCCNC(=O)[C@H](Cc1ccc2ccccc2c1)NC(=O)[C@H]1CC[C@H](CNC(=O)CN2CCN(CC(=O)O)CCN(CC(=O)O)CCN(CC(=O)O)CC2)CC1)C(=O)O)C(=O)O` [PSMA-617, hooc-Lys(-2Nal-Tran-DOTA)-'CO'-Glu-cooh] came in with an IC50 in data set [2] of 0.021 µM.

In data set [1], “Ac-Cys-(Ahx)2-dLys-Re(CCMSH) [Prototype αMSH]” gave an IC50 of 0.007 µM. This counts as single-digit nanomolar. In the case of `O=C([O-])CN1CCN(CC(=O)[O-])CCN(CC(=O)NCC2CCC(C(=O)N[C@@H](Cc3ccc4ccccc4c3)C(=O)NCCCC[C@H](NC(=O)N[C@@H](CCC(=O)O)C(=O)O)C(=O)O)CC2)CCN(CC(=O)[O-])CC1.[177Lu+3]` (stereo partly shown) [^177Lu-PSMA-617], the clinical response entry in data set [3] is on record as “high response rate”.

With `Clc1cccc(CN=C2Nc3ccccc3NC23CCNCC3)c1` [liproxstatin-1], in data set [4] (after final dose), the “H&E staining of tumor tissue” value is recorded as “reversed”. Also, the “effect of i.p. liproxstatin-1 on particle-induced tumor volume drop” value in data set [4] (mouse, in vivo, ip) is listed as “substantially attenuated”. Regarding `CC(=O)N[C@@H](CS)C(=O)NCCCCCC(=O)NCCCCCC(=O)N[C@H](CCCCN)C(=O)NCCCCCC(=O)NCCCC[C@H](NC(=O)N[C@@H](CCC(=O)O)C(=O)O)C(=O)O` [Prototype PSMAi, hooc-Lys(-Ahx-dLys(-nh2)-(Ahx)2-Cys-Ac)-'CO'-Glu-cooh], in data set [2], the IC50 stood at 0.0045 µM. As for `O=C([O-])CC[C@H](NC(=O)N[C@@H](CCCCNC(=O)[C@H](Cc1ccc2ccccc2c1)NC(=O)[C@H]1CC[C@H](CNC(=O)CN2CCN(CC(=O)[O-])CCN(CC(=O)[O-])CCN(CC(=O)[O-])CC2)CC1)C(=O)[O-])C(=O)[O-].[225Ac].[H+].[H+].[H+]` [^225Ac-PSMA-617], in data set [3] (40 patients), the salivary gland toxicity entry was “frequent occurrence of severe xerostomia”. The “patients who discontinued treatment due to xerostomia” value in data set [3] (clinical trial) is given as approximately 23%. Moreover, the clinical response entry in data set [3] is given as “remarkable results”.
